From patent US11401270B2, “Alcoxyamino derivatives for treating pain and pain related conditions” (ESTEVE PHARMACEUTICALS, S.A., priority 2017, dated 2022)

target: Human α2δ-1 subunit of Cav2.2 calcium channel (Homo sapiens (Human), UniProt P54289); test: Binding Assay to Human α2δ-1 Subunit of Cav2.2 Calcium Channel; details: Table 1; human α2δ-1 enriched membranes, 15 nM [3H]-Gabapentin; read-out: Ki(nM) alpha2delta Hum
Experimental: Binding Assay to Human α2δ-1 Subunit of Cav2.2 Calcium Channel.
NSB (non specific binding) was measured by adding 10 μM pregabalin. The binding of the test compound was measured in five different concentrations. After 60 min incubation at 27° C., binding reaction was terminated by filtering through Multiscreen GF/C (Millipore) presoaked in 0.5% polyethyleneimine in Vacuum Manifold Station, followed by 3 washes with ice-cold filtration buffer containing 50 mM Tris-HCl, pH 7.4.
Filter plates were dried at 60° C. for 1 hour and 30 μl of scintillation cocktail were added to each well before radioactivity reading.

Sequence of Human α2δ-1 subunit of Cav2.2 calcium channel (P54289 25-1103): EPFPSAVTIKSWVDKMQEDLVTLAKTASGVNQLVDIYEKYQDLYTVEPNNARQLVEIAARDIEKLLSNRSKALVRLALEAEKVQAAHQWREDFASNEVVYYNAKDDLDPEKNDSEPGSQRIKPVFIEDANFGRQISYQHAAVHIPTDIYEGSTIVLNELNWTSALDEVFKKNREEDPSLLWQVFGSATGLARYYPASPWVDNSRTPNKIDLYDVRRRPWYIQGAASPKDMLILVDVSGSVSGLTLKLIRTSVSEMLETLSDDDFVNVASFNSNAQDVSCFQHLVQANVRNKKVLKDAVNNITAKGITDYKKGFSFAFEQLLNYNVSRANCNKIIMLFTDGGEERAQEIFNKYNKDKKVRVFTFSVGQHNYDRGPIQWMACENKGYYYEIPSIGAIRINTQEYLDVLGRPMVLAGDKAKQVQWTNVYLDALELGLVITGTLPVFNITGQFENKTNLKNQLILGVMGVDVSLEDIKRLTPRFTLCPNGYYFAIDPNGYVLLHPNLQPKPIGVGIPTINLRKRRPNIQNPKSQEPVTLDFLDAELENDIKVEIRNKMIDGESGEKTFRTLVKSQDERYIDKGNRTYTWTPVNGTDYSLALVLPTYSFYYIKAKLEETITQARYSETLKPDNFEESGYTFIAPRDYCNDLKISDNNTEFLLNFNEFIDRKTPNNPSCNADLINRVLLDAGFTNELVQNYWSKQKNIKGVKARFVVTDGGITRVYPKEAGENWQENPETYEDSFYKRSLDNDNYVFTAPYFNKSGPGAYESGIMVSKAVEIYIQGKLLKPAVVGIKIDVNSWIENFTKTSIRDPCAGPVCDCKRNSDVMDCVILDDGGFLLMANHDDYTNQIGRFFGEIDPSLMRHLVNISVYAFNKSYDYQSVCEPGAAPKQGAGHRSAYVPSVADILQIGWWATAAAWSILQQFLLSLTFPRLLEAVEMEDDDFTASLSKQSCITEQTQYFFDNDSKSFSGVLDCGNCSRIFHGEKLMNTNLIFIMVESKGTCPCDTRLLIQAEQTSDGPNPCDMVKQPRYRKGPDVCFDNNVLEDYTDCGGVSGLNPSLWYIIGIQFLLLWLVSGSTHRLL

Row | Compound | Ki
1 | CCNC1CCCN(c2cccc(O[C@@H](CCNC)c3cccs3)c2)C(=O)C1 (single isomer, unassigned) [Example 118a] | 500 to 3000 nM
2 | CCNC1CCCN(c2cccc(O[C@@H](CCNC)c3cccs3)c2)C(=O)C1 (single isomer, unassigned) [Example 118b] | 500 to 3000 nM
3 | CNCCC(Oc1cccc(C(=O)N2CCCN(C)CC2)c1)c1cccs1 (stereo not shown) [Example 2, (4-Methyl-1,4-diazepan-1-yl)(3-(3-(methylamino)-1-(thiophen-2-yl)propoxy)phenyl)methanone] | 500 to 3000 nM
4 | CNCCC(Oc1cccc(C(=O)N2CCN(C)c3ccccc3C2)c1)c1cccs1 (stereo not shown) [Example 4, (1-Methyl-1,2,3,5-tetrahydro-4H-benzo[e][1,4]diazepin-4-yl)(3-(3-(methylamino)-1-(thiophen-2-yl)propoxy)phenyl)methanone] | 500 to 3000 nM
5 | CNCCC(Oc1cccc(N2CCCN(C)CC2)c1)c1ccccc1 (stereo not shown) [Example 5, N-methyl-3-(3-(4-methyl-1,4-diazepan-1-yl)phenoxy)-3-phenylpropan-1-amine] | 500 to 3000 nM
6 | CNCCC(Oc1cccc(N2CCCN(C)CC2)c1)c1cccs1 (stereo not shown) [Example 8, N-methyl-3-(3-(4-methyl-1,4-diazepan-1-yl)phenoxy)-3-(thiophen-2-yl)propan-1-amine] | 100 to 500 nM
7 | CNCCC(Oc1cccc(N2CCN(C)c3ccccc3C2)c1)c1cccs1 (stereo not shown) [Example 9, N-methyl-3-(3-(1-methyl-1,2,3,5-tetrahydro-4H-benzo[e][1,4]diazepin-4-yl)phenoxy)-3-(thiophen-2-yl)propan-1-amine] | > 3000 nM
8 | CCNCC(=O)N1CCCN(c2cccc(OC(CCNC)c3cccs3)c2)CC1 (stereo not shown) [Example 11, 2-(Ethylamino)-1-(4-(3-(3-(methylamino)-1-(thiophen-2-yl)propoxy)phenyl)-1,4-diazepan-1-yl)ethan-1-one] | 500 to 3000 nM
9 | CNCC[C@H](OCc1cccc(N2CCCN(C)CC2)c1)c1ccccc1 [Example 12, (S)-N-methyl-3-((3-(4-methyl-1,4-diazepan-1-yl)benzyl)oxy)-3-phenylpropan-1-amine] | > 3000 nM
10 | CNCC[C@@H](OCc1cccc(N2CCCN(C)CC2)c1)c1ccccc1 [Example 13, (R)-N-methyl-3-((3-(4-methyl-1,4-diazepan-1-yl)benzyl)oxy)-3-phenylpropan-1-amine] | 500 to 3000 nM
11 | CNCC[C@@H](OCc1cccc(N2CCN(C)c3ccccc3C2=O)c1)c1cccs1 [Example 14, (R)-1-methyl-4-(3-((3-(methylamino)-1-(thiophen-2-yl)propoxy)methyl)phenyl)-1,2,3,4-tetrahydro-5H-benzo[e][1,4]diazepin-5-one] | 100 to 500 nM
12 | CNCC[C@H](OCc1cccc(N2CCN(C)c3ccccc3C2=O)c1)c1cccs1 [Example 15, (S)-1-methyl-4-(3-((3-(methylamino)-1-(thiophen-2-yl)propoxy)methyl)phenyl)-1,2,3,4-tetrahydro-5H-benzo[e][1,4]diazepin-5-one] | > 3000 nM
13 | CNCCC(OCc1cccc(N2CCCCCC2=O)c1)c1cccs1 (stereo not shown) [Example 16, 1-(3-((3-(Methylamino)-1-(thiophen-2-yl)propoxy)methyl)phenyl)azepan-2-one] | 500 to 3000 nM
14 | CNCCC(Oc1cccc(N2CCCCCC2=O)c1)c1cccs1 (stereo not shown) [Example 17, 1-(3-(3-(Methylamino)-1-(thiophen-2-yl)propoxy)phenyl)azepan-2-one] | > 3000 nM
15 | CCN[C@@H]1CCCCN(c2cccc(O[C@@H](CCNC)c3cccs3)c2)C1=O [Example 18, (R)-3-(ethylamino)-1-(3-((S)-3-(methylamino)-1-(thiophen-2-yl)propoxy)phenyl)azepan-2-one] | 500 to 3000 nM
16 | CCN[C@H]1CCCCN(c2cccc(O[C@@H](CCNC)c3cccs3)c2)C1=O [Example 19, (S)-3-(ethylamino)-1-(3-((S)-3-(methylamino)-1-(thiophen-2-yl)propoxy)phenyl)azepan-2-one] | 500 to 3000 nM
17 | CCNC[C@H]1CC(=O)N(c2cccc(O[C@@H](CCNC)c3ccccc3)c2)CCN1C [Example 22, (R)-7-((ethylamino)methyl)-1-methyl-4-(3-((S)-3-(methylamino)-1-phenylpropoxy)phenyl)-1,4-diazepan-5-one] | > 3000 nM
18 | CCNC[C@@H]1CC(=O)N(c2cccc(O[C@@H](CCNC)c3ccccc3)c2)CCN1C [Example 23, (S)-7-((ethylamino)methyl)-1-methyl-4-(3-((S)-3-(methylamino)-1-phenylpropoxy)phenyl)-1,4-diazepan-5-one] | > 3000 nM
19 | CCNC[C@H]1CN(C)CCN(c2cccc(O[C@@H](CCNC)c3ccccc3)c2)C1=O [Example 24, (S)-6-((ethylamino)methyl)-1-methyl-4-(3-((S)-3-(methylamino)-1-phenylpropoxy)phenyl)-1,4-diazepan-5-one] | > 3000 nM

Row | Compound | Ki
20 | CCNC[C@@H]1CN(C)CCN(c2cccc(O[C@@H](CCNC)c3ccccc3)c2)C1=O [Example 25, (R)-6-((ethylamino)methyl)-1-methyl-4-(3-((S)-3-(methylamino)-1-phenylpropoxy)phenyl)-1,4-diazepan-5-one] | > 3000 nM
21 | CNCCC(OCc1cccc(N2CCN(C)c3cccnc3C2=O)c1)c1ccccc1 (stereo not shown) [Example 26, 1-Methyl-4-(3-((3-(methylamino)-1-phenylpropoxy)methyl)phenyl)-1,2,3,4-tetrahydro-5H-pyrido[3,2-e][1,4]diazepin-5-one] | 500 to 3000 nM
22 | CNCCC(OCc1cccc(N2CCN(C)c3cc(F)cnc3C2=O)c1)c1ccccc1 (stereo not shown) [Example 27, 8-Fluoro-1-methyl-4-(3-((3-(methylamino)-1-phenylpropoxy)methyl)phenyl)-1,2,3,4-tetrahydro-5H-pyrido[3,2-e][1,4]diazepin-5-one] | 100 to 500 nM
23 | CNCCC(OCc1cccc(N2CCN(C)c3cnccc3C2=O)c1)c1ccccc1 (stereo not shown) [Example 28, 1-Methyl-4-(3-((3-(methylamino)-1-phenylpropoxy)methyl)phenyl)-1,2,3,4-tetrahydro-5H-pyrido[3,4-e][1,4]diazepin-5-one] | 500 to 3000 nM
24 | CNCC[C@H](OCc1cccc(N2C[C@@H]3CCCN3c3ccccc3C2=O)c1)c1ccccc1 [Example 30, (S)-5-(3-(((S)-3-(methylamino)-1-phenylpropoxy)methyl)phenyl)-1,2,3,3a,4,5-hexahydro-6H-benzo[f]pyrrolo[1,2-a][1,4]diazepin-6-one] | > 3000 nM
25 | CNCC[C@@H](OCc1cccc(N2C[C@@H]3CCCN3c3ccccc3C2=O)c1)c1ccccc1 [Example 31, (S)-5-(3-(((R)-3-(methylamino)-1-phenylpropoxy)methyl)phenyl)-1.2,3,3a,4,5-hexahydro-6H-benzo[f]pyrrolo[1,2-a][1,4]diazepin-6-one] | 500 to 3000 nM
26 | CNCCC(Oc1cccc(N2CCN(C)CCC2=O)c1)c1ccccc1 (stereo not shown) [Example 32, 1-Methyl-4-(3-(3-(methylamino)-1-phenylpropoxy)phenyl)-1,4-diazepan-5-one] | > 3000 nM
27 | CNCCC(Oc1cccc(N2CCCCCC2=O)c1)c1ccccc1 (stereo not shown) [Example 33, 1-(3-(3-(Methylamino)-1-phenylpropoxy)phenyl)azapan-2-one] | > 3000 nM
28 | CNCCC(OCc1cccc(N2CCCCCC2=O)c1)c1ccccc1 (stereo not shown) [Example 35, 1-(3-((3-(Methylamino)-1-phenylpropoxy)methyl)phenyl)azepan-2-one] | 500 to 3000 nM
29 | CNCCC(OCc1cccc(N2CCCN(C)CC2=O)c1)c1ccccc1 (stereo not shown) [Example 36, 4-Methyl-1-(3-((3-(methylamino)-1-phenylpropoxy)methyl)phenyl)-1,4-diazepan-2-one] | 500 to 3000 nM
30 | CNCCC(OCc1cccc(N2CCN(C)c3ccccc3C2=O)c1)c1ccccc1 (stereo not shown) [Example 38, 1-Methyl-4-(3-((3-(methylamino)-1-phenylpropoxy)methyl)phenyl)-1,2,3,4-tetrahydro-5H-benzo[e][1,4]diazepin-5-one] | 500 to 3000 nM
31 | CNCCC(OCc1cccc(N2CCN(C)c3ccccc3C2=O)c1)c1ccccc1F (stereo not shown) [Example 39, 4-(3-((1-(2-Fluorophenyl)-3-(methylamino)propoxy)methyl)phenyl)-1-methyl-1,2,3,4-tetrahydro-5H-benzo[e][1,4]diazepin-5-one] | 100 to 500 nM
32 | CNCCC(OCc1cccc(N2CCN(C)c3ccccc3C2=O)c1)c1cccc(F)c1 (stereo not shown) [Example 40, 4-(3-((1-(3-Fluorophenyl)-3-(methylamino)propoxy)methyl)phenyl)-1-methyl-1,2,3,4-tetrahydro-5H-benzo[e][1,4]diazepin-5-one] | 500 to 3000 nM
33 | CNCC[C@@H](OCc1cccc(N2CCN(C)c3ccccc3C2=O)c1)c1cccc(F)c1 [Example 41, (R)-4-(3-((1-(3-fluorophenyl)-3-(methylamino)propoxy)methyl)phenyl)-1-methyl-1,2,3,4-tetrahydro-5H-benzo[e][1,4]diazepin-5-one] | > 3000 nM
34 | CNCC[C@H](OCc1cccc(N2CCN(C)c3ccccc3C2=O)c1)c1cccc(F)c1 [Example 42, (S)-4-(3-((1-(3-fluorophenyl)-3-(methylamino)propoxy)methyl)phenyl)methyl-1 2,3,4-tetrahydro-5H-benzo[e][1,4]diazepin-5-one] | 500 to 3000 nM
35 | CCNCCC(OCc1cccc(N2CCN(C)c3ccccc3C2=O)c1)c1ccccc1 (stereo not shown) [Example 43, 4-(3-((3-(Ethylamino)-1-phenylpropoxy)methyl)phenyl)-1-methyl-1,2,3,4-tetrahydro-5H-benzo[e][1,4]diazepin-5-one] | 100 to 500 nM
36 | CN1CCN(c2cccc(COC(CCNCCF)c3ccccc3)c2)C(=O)c2ccccc21 (stereo not shown) [Example 44, 4-(3-((3-((2-Fluoroethyl)amino)-1-phenylpropoxy)methyl)phenyl)-1-methyl-1,2,3,4-tetrahydro-5H-benzo[e][1,4]diazepin-5-one] | 500 to 3000 nM
37 | CNCCC(OCc1cccc(N2CCN(C)c3ncccc3C2=O)c1)c1ccccc1 (stereo not shown) [Example 45, 1-Methyl-4-(3-((3-(methylamino)-1-phenylpropoxy)methyl)phenyl)-1,2,3,4-tetrahydro-5H-pyrido[2,3-e][1,4]diazepin-5-one] | 500 to 3000 nM
